{"source": "patent US5618829A", "about": "“Tyrosine kinase inhibitors and benzoylacrylamide derivatives” (Mitsubishi Chemical Corporation, priority 1993, dated 1997)", "key": {"KB cell": {"test_system": "KB cell", "test": "Cancer cell growth inhibitory activity (KB cells, MTT)", "type": "cell-based", "conditions": "Homo sapiens, 72 h, read-out: Inhibitory activity (IC50, μM) Cancer cell growth", "procedure": "(§1) The compounds of the invention were evaluated their tyrosine kinase inhibitory activities with partially purified EGF (epidermal cell growth factor) receptor preparation and cell growth inhibitory activity with human cancer cells.\nCancer Cell Growth Inhibitory Activity\nAccordingly, the KB cell was used to evaluate the effect of test compounds on the growth of cultured cancer cells.\nKB cells were plated on a 96-well dish (2.5×10^3 cell/well) and cultured for 24 hours at 37° C. under 5% CO2 atmosphere in DMEM:F12 (1:1) medium containing 10% FCS, 50 μg/ml penicillin, and 50 μg/ml streptomycin. To the culture medium was added a test compound dissolved in DMSO (DMSO final concentration<0.1%), and the cells were cultured for three days under the same conditions. The test compound was exchanged every 24 hours together with the culture medium.\nThe amount of living cells were measured by calorimetric determination at wave lengths of 550 nm and 650 nm after developing colour by MTT reagent, in accordance with the method of Michael C.\nCancer cell growth inhibitory activity (CCGIA) was determined according to the following equation.\nSimbols \"a\" and \"b\" represent the colorimetric values determined in the cancer cell growth assay with and without the test compounds, respectively."}, "EGF receptor": {"biological_target": "T1, EGF receptor (Homo sapiens, UniProt P00533)", "T1 construct": "The cell membrane fraction, a partially purified EGF receptor, was used as an enzyme source; endogenous in cells; host or cells: A431 (human epidermoid carcinoma), cell membrane fraction", "T1 sequence (P00533 25-1210)": "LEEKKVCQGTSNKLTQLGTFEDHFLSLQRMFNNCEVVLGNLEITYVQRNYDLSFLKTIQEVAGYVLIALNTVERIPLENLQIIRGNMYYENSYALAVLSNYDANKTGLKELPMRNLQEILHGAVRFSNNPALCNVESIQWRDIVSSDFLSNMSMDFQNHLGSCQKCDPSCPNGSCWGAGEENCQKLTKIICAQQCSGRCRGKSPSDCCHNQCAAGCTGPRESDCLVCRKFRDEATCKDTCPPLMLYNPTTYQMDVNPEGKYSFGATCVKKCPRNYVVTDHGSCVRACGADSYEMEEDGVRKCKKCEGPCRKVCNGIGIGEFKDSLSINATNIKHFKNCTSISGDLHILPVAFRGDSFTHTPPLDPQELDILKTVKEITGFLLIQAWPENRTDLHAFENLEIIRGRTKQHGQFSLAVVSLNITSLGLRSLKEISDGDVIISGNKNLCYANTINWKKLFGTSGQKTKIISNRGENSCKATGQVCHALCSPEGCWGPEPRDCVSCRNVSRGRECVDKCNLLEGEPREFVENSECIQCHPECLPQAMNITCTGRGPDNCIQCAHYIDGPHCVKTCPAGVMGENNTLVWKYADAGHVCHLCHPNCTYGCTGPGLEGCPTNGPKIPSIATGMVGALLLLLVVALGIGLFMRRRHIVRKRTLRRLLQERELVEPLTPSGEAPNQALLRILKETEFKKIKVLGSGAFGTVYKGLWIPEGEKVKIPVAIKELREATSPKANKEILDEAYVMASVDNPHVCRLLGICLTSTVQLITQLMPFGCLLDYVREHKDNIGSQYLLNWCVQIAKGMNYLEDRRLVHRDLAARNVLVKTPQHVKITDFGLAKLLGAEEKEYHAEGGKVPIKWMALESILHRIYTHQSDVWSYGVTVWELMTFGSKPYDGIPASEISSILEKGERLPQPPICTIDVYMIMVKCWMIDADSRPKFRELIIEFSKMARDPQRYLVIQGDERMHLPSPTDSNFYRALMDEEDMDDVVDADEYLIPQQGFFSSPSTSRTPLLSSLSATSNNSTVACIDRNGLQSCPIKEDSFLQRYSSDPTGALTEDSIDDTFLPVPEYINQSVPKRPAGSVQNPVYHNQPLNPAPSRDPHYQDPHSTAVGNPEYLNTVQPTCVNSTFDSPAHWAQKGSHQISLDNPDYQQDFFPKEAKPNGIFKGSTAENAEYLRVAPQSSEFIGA", "test": "Tyrosine kinase inhibitory activity (partially purified EGF receptor from A431 cell membrane fraction, RR-SRC peptide substrate)", "type": "biochemical", "conditions": "partially purified EGF receptor from A431 cells, 100 ng EGF, 10 μM γ-32P-ATP, 30 minutes under ice-cooling", "procedure": "as §1\nTyrosine Kinase Inhibitory Activity\nTyrosine kinase inhibitory activities of the compounds of the invention were determined as the inhibitory activities of the compounds added into the tyrosine kinase activity assay system.\nThe method employed is detailed below.\nA431 cells were cultured in Dulbecco's modified Eagles medium (DMEM) containing 10% fetal calf serum (FCS) at 37° C. under 5% CO2 atmosphere. The cultured cells were homogenated in a solution containing 10 mM N-2-hydroxyethylpiperazino-N'-2-ethane sulfonate buffer (pH 7.4), 0.25M sucrose, and 0.1 mM EDTA, and centrifuged at 3000 xg for 5 minutes. The supernatant was then centrifuged at 10000 xg for 30 minutes to obtain A431 cell membrane fraction. The cell membrane fraction, a partially purified EGF receptor, was used as an enzyme source. A test compound dissolved in dimethylsulfoxide (DMSO) was added to a reaction mixture containing 15 mM Hepes buffer (pH 7.7), 2 mM MnCl2, 10 μM ZnSO4, 50 μM Na3 VO4 and the partially purified EGF receptor preparation (10-15 μg). […] The mixture was allowed to react under […] for 30 minutes, and the reaction was stopped by addition of 10 mg/ml bovine serum albumin and 20% trichloroacetic acid. The reaction mixture was left to stand under ice-cooling for 30 minutes. The mixture was centrifuged at 5000 xg for two minutes, and an aliquot of the supernatant was adsorbed on P81 phosphocellulose filter. The filter was dipped in 30% aqueous acetic acid for 15 minutes for fixation and then washed with 15% acetic acid. The washing was repeated four times. The radioactivity of ^32 P retained on the phosphocellulose filter was counted with liquid scintillation counter.\nTyrosine kinase inhibitory activity (TKIA) was determined according to the following equation:\nTKIA(%)={1-(B-C)/(A-C)}×100\nThe sympols \"A\", \"B\" and \"C\" represent the radioactivities determined in tyrosine kinase assays with test compounds, without a test compound, and without both a test compound and EGF, respectively."}, "[1]": {"conditions": "KB cells, three days, 37° C., MTT"}}, "note": "Read-outs that look alike come from different tables or passages of the source."}
{"smiles": "COc1cc(C(=O)/C=C/C(=O)Nc2ccccc2)ccc1OC(F)F", "note": "[Compound 64]", "values": [{"measurement": "IC50", "setting": "KB cell; KB", "value": 1.1, "unit": "µM"}, {"measurement": "IC50", "setting": "EGF receptor", "value": 1.5, "unit": "µM"}]}
{"smiles": "COc1ccc(C(=O)/C=C/C(=O)Nc2ccccc2Cl)cc1OC", "note": "[Compound 71]", "values": [{"measurement": "IC50", "setting": "KB cell; KB", "value": 1.2, "unit": "µM"}, {"measurement": "IC50", "setting": "EGF receptor", "value": 1.2, "unit": "µM"}]}
{"smiles": "COc1ccc(C(=O)/C=C/C(=O)Nc2ccccc2)cc1OC", "note": "[Compound 59]", "values": [{"measurement": "IC50", "setting": "KB cell; KB", "value": 0.45, "unit": "µM"}, {"measurement": "IC50", "setting": "EGF receptor", "value": 0.54, "unit": "µM"}]}
{"smiles": "COc1cc(C(=O)/C=C/C(=O)Nc2ccccc2)ccc1O", "note": "[Compound 61]", "values": [{"measurement": "IC50", "setting": "KB cell; [1]", "value": 2, "unit": "µM"}, {"measurement": "IC50", "setting": "EGF receptor", "value": 1.5, "unit": "µM"}]}
{"smiles": "COc1ccc(C(=O)/C=C/C(=O)Nc2cccc(C)c2)cc1OC", "note": "[Compound 83]", "values": [{"measurement": "IC50", "setting": "KB cell; KB", "value": 0.95, "unit": "µM"}, {"measurement": "IC50", "setting": "EGF receptor", "value": 0.81, "unit": "µM"}]}
{"smiles": "O=C(/C=C/C(=O)c1ccc(O)c(O)c1)Nc1ccccc1", "note": "[Compound 60]", "values": [{"measurement": "IC50", "setting": "KB cell; KB", "value": 1.85, "unit": "µM"}, {"measurement": "IC50", "setting": "EGF receptor", "value": 1, "unit": "µM"}]}
{"smiles": "COc1ccc(C(=O)/C=C/C(=O)NC2CCCCC2)cc1OC", "note": "[Compound 45]", "values": [{"measurement": "IC50", "setting": "KB cell; KB", "value": 0.22, "unit": "µM"}, {"measurement": "IC50", "setting": "EGF receptor", "value": 1, "unit": "µM"}]}
{"smiles": "O=C(/C=C/C(=O)c1ccc(O)c(O)c1)Nc1cccc(Cl)c1", "note": "[Compound 75]", "values": [{"measurement": "IC50", "setting": "KB cell; KB", "value": 1.25, "unit": "µM"}, {"measurement": "IC50", "setting": "EGF receptor", "value": 4.3, "unit": "µM"}]}
{"smiles": "COc1ccc(C(=O)/C=C/C(=O)Nc2cccc(Cl)c2)cc1OC", "note": "[Compound 74]", "values": [{"measurement": "IC50", "setting": "KB cell; [1]", "value": 0.7, "unit": "µM"}, {"measurement": "IC50", "setting": "EGF receptor", "value": 0.76, "unit": "µM"}]}
{"smiles": "COc1cc(C(=O)/C=C/C(=O)Nc2ccccc2)ccc1OCc1ccccc1", "note": "[Compound 67]", "values": [{"measurement": "IC50", "setting": "KB cell; KB", "value": 0.58, "unit": "µM"}, {"measurement": "IC50", "setting": "EGF receptor", "value": 13, "unit": "µM"}]}
{"smiles": "COc1ccc(C(=O)/C=C/C(=O)NCc2ccccc2)cc1OC", "note": "[Compound 19]", "values": [{"measurement": "IC50", "setting": "KB cell; KB", "value": 0.97, "unit": "µM"}, {"measurement": "IC50", "setting": "EGF receptor", "value": 0.79, "unit": "µM"}]}
{"smiles": "COc1ccc(C(=O)/C=C/C(=O)Nc2ccccc2)cc1", "note": "[Compound 58]", "values": [{"measurement": "IC50", "setting": "KB cell; KB", "value": 0.34, "unit": "µM"}, {"measurement": "IC50", "setting": "EGF receptor", "value": 2.2, "unit": "µM"}]}
{"smiles": "COc1ccc(C(=O)/C=C/C(N)=O)cc1OC", "note": "[Compound 2]", "values": [{"measurement": "IC50", "setting": "KB cell; KB", "value": 0.92, "unit": "µM"}, {"measurement": "IC50", "setting": "EGF receptor", "value": 0.32, "unit": "µM"}]}
{"smiles": "COc1ccc(C(=O)/C=C/C(=O)NC(=O)c2ccccc2)cc1OC", "note": "[Compound 110]", "values": [{"measurement": "IC50", "setting": "KB cell; KB", "value": 11.5, "unit": "µM"}, {"measurement": "IC50", "setting": "EGF receptor", "value": 0.91, "unit": "µM"}]}
